Assay results published in PubChem BioAssay AID2060484 (Molecular Pharmacology Branch, DTP, NCI, 2025).

System: SUM149PT spheroids with HUVEC/MSC, viability
Assay: Anticancer human tumor SUM149PT cell line growth inhibition [GQUAD];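 further: spheroids exposed to drugs for seven days before readout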;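 on viability, T/C: percent viability relative to DMSO vehicle control taken as 100%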
Settings: for IC50: curve of first compound; for viability, T/C: stronger effect = lower value
Source text: DNA G-quadruplex Stabilizer Agents in Combinations in Complex Spheroids
A high-throughput screen of multi-cell type tumor spheroids was designed to identify active combinations of DNA G-quadruplex stabilizer agents and targeted small molecules. Complex spheroids include a stromal component modeled by human endothelial cells (HUVEC) and fibroblasts modeled by human mesenchymal stem cells (MSCs). The concentration ranges selected for each drug and investigational agent were based upon clinically achievable concentrations if the clinical Cmax of the agent was known.
Compounds. The drugs and investigational agents: pidnarulex (CX-5461; NSC782164), APTO-253 (NSC789042), BRACO-19 (NSC847499), peposertib (NSC802822), ceralasertib (NSC780249), elimusertib (NSC800525), camonsertib (NSC841442), AZD-1390 (NSC803789), olaparib (NSC753686), talazoparib (NSC767125), ART-558 (NSC835418), sotorasib (NSC818433), MRTX-1133 (NSC836407), SN-38 (NSC673596), topotecan (NSC609699), etoposide (NSC141540), doxorubicin (NSC123127), gemcitabine (NSC613327), 5-fluorouracil (NSC19893), paclitaxel (NSC125973), vemurafenib (NSC761431), panobinostat (NSC761190), R-306465 (JNJ-16241199; NSC773264), adavosertib (NSC754352), TP-3654 (NSC805149), carboplatin (NSC241240), KSQ-4279 (NSC840948), and staurosporine (NSC755774) were obtained from the National Cancer Institute (NCI) Developmental Therapeutics Program Chemical Repository (34). The FDA-approved anticancer drug set is available from the NCI Developmental Therapeutics Program. […] The stock solutions were prepared in dimethyl sulfoxide (DMSO, Sigma-Aldrich, St. Louis, MO, cat. D2650) at 800-fold the tested concentration and stored at -70 degrees C prior to their use. All drugs and investigational agents were tested over a range starting from a high concentration at or near the clinical Cmax and decreasing in half-log increments. If the clinical Cmax for an agent had not been determined, the highest concentration tested was 10 microM.
2.3 Cell Culture. All cells were maintained in an incubator at 37 degrees C and 5% CO2 with 95% humidity. The PDC lines were cultured according to standard operating procedures established by the NCI PDMR. All PDCs were thawed and cultured in Matrigel-coated flasks prepared with a working solution of 1X Ham's F-12 nutrient mix, without supplementation (Invitrogen, cat. 11765054), 100 U/mL penicillin-streptomycin (Invitrogen, cat. 15140122), and 2.5% Matrigel (Corning Inc., cat. 354248) for the first three passages. The 857933-349-R-J2-PDC line was cultured in 6C/Colon 1B media, which includes advanced DMEM/F-12 (Thermo Fisher Scientific, cat. 12634028), 10 mM HEPES (Thermo Fisher Scientific, cat. 15630080), 1X GlutaMAX supplement (Thermo Fisher Scientific, cat. 35050061), 0.1 mg/mL primocin (InvivoGen, cat. ant-pm-2), 10% defined fetal bovine serum, heat inactivated (HyClone Laboratories Inc., cat. SH30070.03HI), 50% L-WRN conditioned media (ATCC, cat. CRL-3276), 1.25 mM N-Acetyl-L-cysteine (Sigma-Aldrich, cat. A9165), 10 mM nicotinamide (Sigma-Aldrich, cat. N0636), 1X B-27 supplement (Thermo Fisher Scientific, cat. 17504044), 1X N-2 supplement (Thermo Fisher Scientific, cat. 17502048), 10 microM Y-27632 dihydrochloride (Tocris Bioscience, cat. 1254), and 50 ng/mL human EGF recombinant protein (Thermo Fisher Scientific, cat. PHG0311). The 485176-168-R4-J1-PDC line was cultured in Panc media, which includes all 6C/Colon 1B media components plus 100 ng/mL human FGF-10 (Thermo Fisher Scientific, cat. 100-26), 500 nM SB-431542 (Selleckchem, cat. S1067), and gastrin (Tocris, cat. 3006).
[…]

[1] = second compound 0.0316 µM, first compound 0.0316 µM
[2] = second compound 0.0316 µM, first compound 0.316 µM
[3] = second compound 0.1 µM, first compound 0.0316 µM
[4] = second compound 0.1 µM, first compound 0.316 µM
[5] = second compound 0.316 µM, first compound 0.0316 µM
[6] = second compound 0.316 µM, first compound 0.316 µM
[7] = second compound 1 µM, first compound 0.0316 µM
[8] = second compound 1 µM, first compound 0.316 µM
[9] = second compound 3.16 µM, first compound 0.0316 µM
[10] = second compound 3.16 µM, first compound 0.316 µM
[11] = second compound 10 µM, first compound 0.0316 µM
[12] = second compound 10 µM, first compound 0.316 µM

## CC[C@@]1(O)C(=O)OCc2c1cc1n(c2=O)Cc2cc3c(CN(C)C)c(O)ccc3nc2-1 + Cc1[nH]c2ccc(F)cc2c1-c1nc2c3cccnc3c3ncccc3c2[nH]1
Second compound 0.0316 µM
  IC50: 85.2 nM
Second compound 0.1 µM
  IC50: 84.8 nM
Second compound 0.316 µM
  IC50: 80.2 nM
Second compound 1 µM
  IC50: 78.3 nM
Second compound 3.16 µM
  IC50: 85.7 nM
Second compound 10 µM
  IC50: 77.2 nM
Second compound 0.0316 µM, first compound 0.000999 µM
  viability, T/C: 103%
Second compound 0.0316 µM, first compound 0.00316 µM
  viability, T/C: 89.6%
Second compound 0.0316 µM, first compound 0.00999 µM
  viability, T/C: 107%
[1]
  viability, T/C: 85.2%
Second compound 0.0316 µM, first compound 0.0999 µM
  viability, T/C: 43.1%
[2]
  viability, T/C: 45.6%
Second compound 0.1 µM, first compound 0.000999 µM
  viability, T/C: 110%
Second compound 0.1 µM, first compound 0.00316 µM
  viability, T/C: 105%
Second compound 0.1 µM, first compound 0.00999 µM
  viability, T/C: 104%
[3]
  viability, T/C: 87.3%
Second compound 0.1 µM, first compound 0.0999 µM
  viability, T/C: 42.5%
[4]
  viability, T/C: 45.1%
Second compound 0.316 µM, first compound 0.000999 µM
  viability, T/C: 97.1%
Second compound 0.316 µM, first compound 0.00316 µM
  viability, T/C: 99.7%
Second compound 0.316 µM, first compound 0.00999 µM
  viability, T/C: 106%
[5]
  viability, T/C: 89%
Second compound 0.316 µM, first compound 0.0999 µM
  viability, T/C: 40.2%
[6]
  viability, T/C: 41.5%
Second compound 1 µM, first compound 0.000999 µM
  viability, T/C: 114%
Second compound 1 µM, first compound 0.00316 µM
  viability, T/C: 99.8%
Second compound 1 µM, first compound 0.00999 µM
  viability, T/C: 105%
[7]
  viability, T/C: 80.2%
Second compound 1 µM, first compound 0.0999 µM
  viability, T/C: 41.5%
[8]
  viability, T/C: 40.2%
Second compound 3.16 µM, first compound 0.000999 µM
  viability, T/C: 82.7%
Second compound 3.16 µM, first compound 0.00316 µM
  viability, T/C: 97.8%
Second compound 3.16 µM, first compound 0.00999 µM
  viability, T/C: 99%
[9]
  viability, T/C: 91.7%
Second compound 3.16 µM, first compound 0.0999 µM
  viability, T/C: 43.1%
[10]
  viability, T/C: 44.1%
Second compound 10 µM, first compound 0.000999 µM
  viability, T/C: 96.1%
Second compound 10 µM, first compound 0.00316 µM
  viability, T/C: 86.8%
Second compound 10 µM, first compound 0.00999 µM
  viability, T/C: 108%
[11]
  viability, T/C: 85.1%
Second compound 10 µM, first compound 0.0999 µM
  viability, T/C: 40.5%
[12]
  viability, T/C: 38.7%

## Nc1ccn(C2OC(CO)C(O)C2(F)F)c(=O)n1 (centres undefined) + Cc1[nH]c2ccc(F)cc2c1-c1nc2c3cccnc3c3ncccc3c2[nH]1
Second compound 0.0316 µM
  IC50: 75.8 nM
Second compound 0.1 µM
  IC50: 83.3 nM
Second compound 0.316 µM
  IC50: 64.3 nM
Second compound 1 µM
  IC50: 76.3 nM
Second compound 3.16 µM
  IC50: 68.4 nM
Second compound 10 µM
  IC50: 53.5 nM
[1]
  viability, T/C: 82.8%
Second compound 0.0316 µM, first compound 0.1 µM
  viability, T/C: 39.7%
[2]
  viability, T/C: 22.1%
Second compound 0.0316 µM, first compound 1 µM
  viability, T/C: 20.7%
Second compound 0.0316 µM, first compound 3.16 µM
  viability, T/C: 17%
Second compound 0.0316 µM, first compound 10 µM
  viability, T/C: 14.1%
[3]
  viability, T/C: 69%
Second compound 0.1 µM, first compound 0.1 µM
  viability, T/C: 46.4%
[4]
  viability, T/C: 19%
Second compound 0.1 µM, first compound 1 µM
  viability, T/C: 17.5%
Second compound 0.1 µM, first compound 3.16 µM
  viability, T/C: 16%
Second compound 0.1 µM, first compound 10 µM
  viability, T/C: 13.9%
[5]
  viability, T/C: 70.4%
Second compound 0.316 µM, first compound 0.1 µM
  viability, T/C: 37.5%
[6]
  viability, T/C: 21.6%
Second compound 0.316 µM, first compound 1 µM
  viability, T/C: 18.7%
Second compound 0.316 µM, first compound 3.16 µM
  viability, T/C: 17.5%
Second compound 0.316 µM, first compound 10 µM
  viability, T/C: 12%
[7]
  viability, T/C: 77.1%
Second compound 1 µM, first compound 0.1 µM
  viability, T/C: 41.1%
[8]
  viability, T/C: 24.7%
Second compound 1 µM, first compound 1 µM
  viability, T/C: 21%
Second compound 1 µM, first compound 3.16 µM
  viability, T/C: 17.1%
Second compound 1 µM, first compound 10 µM
  viability, T/C: 12.1%
[9]
  viability, T/C: 75.8%
Second compound 3.16 µM, first compound 0.1 µM
  viability, T/C: 37.5%
[10]
  viability, T/C: 20.8%
Second compound 3.16 µM, first compound 1 µM
  viability, T/C: 18.7%
Second compound 3.16 µM, first compound 3.16 µM
  viability, T/C: 15.3%
Second compound 3.16 µM, first compound 10 µM
  viability, T/C: 12%
[11]
  viability, T/C: 62.8%
Second compound 10 µM, first compound 0.1 µM
  viability, T/C: 35.3%
[12]
  viability, T/C: 19.9%
Second compound 10 µM, first compound 1 µM
  viability, T/C: 22.1%
Second compound 10 µM, first compound 3.16 µM
  viability, T/C: 15.6%
Second compound 10 µM, first compound 10 µM
  viability, T/C: 11.6%
